Reference: US8012979B2, “Compounds and their uses 707” (AstraZeneca AB, priority 2007, dated 2011)

What follows are compounds tested against T1, human active recombinant p38α-6His tagged (Homo sapiens, UniProt Q16539) (assay: p38 Alpha Enzyme Assay (AlphaScreen, biotinylated-ATF2 substrate)). Settings: pre-incubated 4 hours at 37° C., reaction initiated with ATP; 0.5 nM enzyme; read-out: p38 pIC50 (converted).
T1 construct: 6His
T1 sequence (Q16539 whole entry): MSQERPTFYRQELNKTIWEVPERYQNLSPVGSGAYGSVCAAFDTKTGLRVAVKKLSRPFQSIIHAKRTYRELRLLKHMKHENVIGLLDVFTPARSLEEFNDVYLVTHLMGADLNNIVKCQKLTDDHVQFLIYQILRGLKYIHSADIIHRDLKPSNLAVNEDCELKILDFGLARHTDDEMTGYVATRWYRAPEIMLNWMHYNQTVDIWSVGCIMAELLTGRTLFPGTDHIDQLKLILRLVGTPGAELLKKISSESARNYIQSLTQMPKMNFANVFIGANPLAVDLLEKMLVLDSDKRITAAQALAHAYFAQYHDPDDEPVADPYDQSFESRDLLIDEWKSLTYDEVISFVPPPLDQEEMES
Format: biochemical
Experimental: The ability of the compounds of formula (I) to inhibit p38 kinase may be determined using the following biological assay:
Enzyme assays were performed in polypropylene 96 well plates. The following solutions were added to each well; 10 μL of compound dilutions in assay buffer (20 mM HEPES pH 7.4, containing 20 mM magnesium acetate, 0.005% (w/v) Tween-20, 10 mM DTT) containing 1% (v/v) DMSO or assay buffer containing 1% (v/v) DMSO alone, 70 μL of assay buffer containing 36 nM substrate (biotinylated-ATF2) and 10 μL of an appropriate dilution of human active recombinant p38α-6His tagged. Depending on batch of p38, an appropriate dilution was typically a 5 nM solution to give a final enzyme concentration of 0.5 nM. At this stage, background control wells also received 50 μL of AlphaScreen quench buffer (10 mM HEPES pH 7.4 containing 100 mM EDTA, 0.2% (w/v) bovine serum albumin). The plate was covered, pre-incubated for 4 hours at 37° C. and the enzyme reaction initiated by addition of 10 μL 1 mM ATP. After incubation for a further 45 minutes at 37° C., the reaction was stopped by addition of 50 μL quench reagent and 50 μL of the quenched reaction mixture transferred to an opaque, white 96-well plate. Detection reagent, 25 μL of 10 mM HEPES pH 7.4 containing 100 mM EDTA, 0.2% (w/v) bovine serum albumin, 0.3 nM anti phosphoATF2 antibody and 25 μg/mL of ‘AlphaScreen protein A acceptor and donor beads’ (PerkinElmer Inc.), was added to all wells in a darkened room, the plate sealed and left in the dark for at least 5 hours before AlphaScreen readings were taken using a Perkin Elmer EnVision reader. Total, uninhibited activity was determined from assays performed in each assay plate. The mean control in the absence of p38 activity was subtracted from each well. Data were expressed as percent inhibition of total activity using equation 1. Percent Inhibition=100*(1−Test/Control) Eq.1 Where . . . . • Test=p38 kinase activity in the presence of compound • Control=p38 kinase activity in the absence of compound.
pIC50 is defined as the logarithm of the reciprocal of the concentration of compound required for 50% reduction in total p38 kinase activity.
Compound `Cc1c(F)cc(C(=O)NC2CC2)cc1-c1ccc2c(=O)n(CC3CC3)cc(CN3CCC[N+]([O-])(CCO)CC3)c2c1` (centres unmarked) [Example 79, 4-((6-(5-(Cyclopropylcarbamoyl)-3-fluoro-2-methylphenyl)-2-(cyclopropylmethyl)-1-oxo-1,2-dihydroisoquinolin-4-yl)methyl)-1-(2-hydroxyethyl)-1,4-diazepane 1-oxide] has an IC50 of 0.631 nM. `Cc1ccc(C(=O)NC2CC2)cc1-c1ccc2c(=O)n(Cc3ccccc3)cc(CN3CCCC3)c2c1` [Example 61, 3-(2-Benzyl-1-oxo-4-(pyrrolidin-1-ylmethyl)-1,2-dihydroisoquinolin-6-yl)-N-cyclopropyl-4-methylbenzamide] gave an IC50 of 10 nM. With `Cc1ccc(C(=O)NC2CC2)cc1-c1ccc2c(=O)n(Cc3ccc(C(=O)N(C)C)cc3)cc(CN3CCCN(C)CC3)c2c1` [Example 105, N-Cyclopropyl-3-(2-(4-(dimethylcarbamoyl)benzyl)-4-((4-methyl-1,4-diazepan-1-yl)methyl)-1-oxo-1,2-dihydroisoquinolin-6-yl)-4-methylbenzamide] the IC50 was 0.158 nM. With `Cc1c(F)cc(C(=O)NC2CC2)cc1-c1ccc2c(=O)n(CC3CC3)cc(CN3CCC[C@@H]3CN)c2c1` [Example 120, (R)-3-(4-((2-(Aminomethyl)pyrrolidin-1-yl)methyl)-2-(cyclopropylmethyl)-1-oxo-1,2-dihydroisoquinolin-6-yl)-N-cyclopropyl-5-fluoro-4-methylbenzamide] the IC50 was 0.794 nM. With `Cc1ccc(C(=O)NC2CC2)cc1-c1ccc2c(=O)n(CC3CC3)cc(CN3CCN(C)CC3)c2c1` [Example 74, N-Cyclopropyl-3-(2-(cyclopropylmethyl)-4-((4-methylpiperazin-1-yl)methyl)-1-oxo-1,2-dihydroisoquinolin-6-yl)-4-methylbenzamide] the IC50 was 0.631 nM. Work on `Cc1ccc(C(=O)NC2CC2)cc1-c1ccc2c(=O)n(Cc3ccc(CN4CCCC4)cc3)ccc2c1` [Example 25, N-Cyclopropyl-4-methyl-3-(1-oxo-2-(4-(pyrrolidin-1-ylmethyl)benzyl)-1,2-dihydroisoquinolin-6-yl)benzamide] yielded an IC50 of 3.16 nM. Compound `CNCCN(C)C(=O)c1ccc(Cn2ccc3cc(-c4cc(C(=O)NC5CC5)ccc4C)ccc3c2=O)cc1` [Example 23, N-Cyclopropyl-4-methyl-3-(2-(4-(methyl(2-(methylamino)ethyl)carbamoyl)benzyl)-1-oxo-1,2-dihydroisoquinolin-6-yl)benzamide] has an IC50 of 2 nM. With `Cc1ccc(C(=O)NC2CC2)cc1-c1ccc2c(=O)n(Cc3ccc(Br)cc3)ccc2c1` [Example 3, 3-[2-(4-Bromo-benzyl)-1-oxo-1,2-dihydro-isoquinolin-6-yl]-N-cyclopropyl-4-methyl-benzamide] the IC50 was 2.51 nM. `C=CCn1ccc2cc(-c3cc(C(=O)NC4CC4)ccc3C)ccc2c1=O` [Example 12, 3-(2-Allyl-1-oxo-1,2-dihydro-isoquinolin-6-yl)-N-cyclopropyl-4-methyl-benzamide] gave an IC50 of 7.94 nM. `Cc1ccc(C(=O)NC2CC2)cc1-c1ccc2c(=O)n(CC3CC3)cc(CNCCCN(C)C)c2c1` [Example 71, N-Cyclopropyl-3-(2-(cyclopropylmethyl)-4-((3-(dimethylamino)propylamino)methyl)-1-oxo-1,2-dihydroisoquinolin-6-yl)-4-methylbenzamide] was tested, and the IC50 was 10 nM. Work on `Cc1c(F)cc(C(=O)NC2CC2)cc1-c1ccc2c(=O)n(CC3CC3)cc(CN3CCC[C@H]3CN)c2c1` [Example 128, (S)-3-(4-((2-(Aminomethyl)pyrrolidin-1-yl)methyl)-2-(cyclopropylmethyl)-1-oxo-1,2-dihydroisoquinolin-6-yl)-N-cyclopropyl-5-fluoro-4-methylbenzamide] yielded an IC50 of 0.316 nM. `Cc1ccc(C(=O)NC2CC2)cc1-c1ccc2c(=O)n(Cc3ccc(OCCN(C)C)cc3)ccc2c1` [Example 32, N-Cyclopropyl-3-(2-(4-(2-(dimethylamino)ethoxy)benzyl)-1-oxo-1,2-dihydroisoquinolin-6-yl)-4-methylbenzamide] gave an IC50 of 0.501 nM. `Cc1ccc(C(=O)NC2CC2)cc1-c1ccc2c(=O)n(CC3CC3)cc(C(=O)NCCCN3CCCC3)c2c1` [Example 44, 6-(5-(Cyclopropylcarbamoyl)-2-methylphenyl)-2-(cyclopropylmethyl)-1-oxo-N-(3-(pyrrolidin-1-yl)propyl)-1,2-dihydroisoquinoline-4-carboxamide] was tested, and the IC50 was 25.1 nM. For `Cc1ccc(C(=O)NC2CC2)cc1-c1ccc2c(=O)n(Cc3ccc(C(=O)N(C)CCN(C)C)cc3)ccc2c1` [Example 18, N-Cyclopropyl-3-(2-(4-((2-(dimethylamino)ethyl)(methyl)carbamoyl)benzyl)-1-oxo-1,2-dihydroisoquinolin-6-yl)-4-methylbenzamide], the IC50 was 2 nM. For `Cc1ccc(C(=O)NC2CC2)cc1-c1ccc2c(=O)n(Cc3ccccc3)cc(CCCN3CCCC3)c2c1` [Example 100, 3-(2-Benzyl-1-oxo-4-(3-(pyrrolidin-1-yl)propyl)-1,2-dihydroisoquinolin-6-yl)-N-cyclopropyl-4-methylbenzamide], the IC50 was 1 nM. With `Cc1ccc(C(=O)NC2CC2)cc1-c1ccc2c(=O)n(CC3CC3)cc(CN3CCC(N(C)C)CC3)c2c1` [Example 69, N-Cyclopropyl-3-(2-(cyclopropylmethyl)-4-((4-(dimethylamino)piperidin-1-yl)methyl)-1-oxo-1,2-dihydroisoquinolin-6-yl)-4-methylbenzamide] the IC50 was 0.2 nM. With `Cc1ccc(C(=O)NC2CC2)cc1-c1ccc2c(=O)n(Cc3ccc(C4CCNCC4)cc3)cc(C)c2c1` [Example 97, N-Cyclopropyl-4-methyl-3-(4-methyl-1-oxo-2-(4-(piperidin-4-yl)benzyl)-1,2-dihydroisoquinolin-6-yl)benzamide] the IC50 was 0.251 nM. `Cc1ccc(C(=O)NC2CC2)cc1-c1ccc2c(=O)n(CC3CC3)ccc2c1` [Example 122, N-Cyclopropyl-3-(2-cyclopropylmethyl-1-oxo-1,2-dihydro-isoquinolin-6-yl)-4-methylbenzamide] was tested, and the IC50 was 1.58 nM. `Cc1ccc(C(=O)NC2CC2)cc1-c1ccc2c(=O)n(Cc3ccccn3)ccc2c1` [Example 126, N-Cyclopropyl-4-methyl-3-(1-oxo-2-(pyridin-2-ylmethyl)-1,2-dihydroisoquinolin-6-yl)benzamide] was tested, and the IC50 was 10 nM. Work on `CC[C@H]1CN(Cc2cn(CC3CC3)c(=O)c3ccc(-c4cc(C(=O)NC5CC5)cc(F)c4C)cc23)CCN1` [Example 116, (S)—N-Cyclopropyl-3-(2-(cyclopropylmethyl)-4-((3-ethylpiperazin-1-yl)methyl)-1-oxo-1,2-dihydroisoquinolin-6-yl)-5-fluoro-4-methylbenzamide] yielded an IC50 of 0.501 nM. Compound `Cc1ccc(C(=O)NC2CC2)cc1-c1ccc2c(=O)n(Cc3cccc(OCCNCCO)c3)ccc2c1` [Example 35, N-Cyclopropyl-3-[2-(3-{2-[(2-hydroxyethyl)amino]ethoxy}benzyl)-1-oxo-1,2-dihydroisoquinolin-6-yl]-4-methylbenzamide] has an IC50 of 2 nM. `Cc1c(F)cc(C(=O)NC2CC2)cc1-c1ccc2c(=O)n(CC3CC3)cc(CNCC3CCNCC3)c2c1` [Example 89, N-Cyclopropyl-3-(2-(cyclopropylmethyl)-1-oxo-4-((piperidin-4-ylmethylamino)methyl)-1,2-dihydroisoquinolin-6-yl)-5-fluoro-4-methylbenzamide] was tested, and the IC50 was 0.794 nM. `Cc1ccc(C(=O)NC2CC2)cc1-c1ccc2c(=O)n(Cc3cccc(OCCCN(C)C)c3)ccc2c1` [Example 10, N-Cyclopropyl-3-{2-[3-(3-dimethylamino-propoxy)-benzyl]-1-oxo-1,2-dihydro-isoquinolin-6-yl}-4-methyl-benzamide] was tested, and the IC50 was 2 nM. For `Cc1c(F)cc(C(=O)NC2CC2)cc1-c1ccc2c(=O)n(CC3CC3)cc(CN3CCNC[C@@H]3C)c2c1` [Example 118, (S)—N-Cyclopropyl-3-(2-(cyclopropylmethyl)-4-((2-methylpiperazin-1-yl)methyl)-1-oxo-1,2-dihydroisoquinolin-6-yl)-5-fluoro-4-methylbenzamide], the IC50 was 0.251 nM. `Cc1ccc(C(=O)NC2CC2)cc1-c1ccc2c(=O)n(CCCN3CCCC3)ccc2c1` [Example 13, N-Cyclopropyl-4-methyl-3-[1-oxo-2-(3-pyrrolidin-1-yl-propyl)-1,2-dihydro-isoquinolin-6-yl]-benzamide] was tested, and the IC50 was 316 nM. In the case of `Cc1ccc(C(=O)NC2CC2)cc1-c1ccc2c(=O)n(Cc3ccc(CNC(C)(C)C)cc3)ccc2c1` [Example 28, 3-(2-(4-((Tert-butylamino)methyl)benzyl)-1-oxo-1,2-dihydroisoquinolin-6-yl)-N-cyclopropyl-4-methylbenzamide], the IC50 is reported as 1 nM.
